In this series the target is ATXN2. Description: mouse, dose not given. The note with it: ASO.

HELM strings list units from the 5' end as sugar, base in round brackets, then linkage (d deoxyribose, r ribose, m 2'-O-methyl, p phosphodiester). Strings are as the collection lists them; they lack the last nucleoside at the 3' end of the tested compound. [moe] = 2'-O-(2-methoxyethyl) (MOE); [sp] = phosphorothioate linkage; [m5C] = 5-methylcytosine

Drawing on the OligoGym collection, this text covers 3 h FOB score for 18 substances.

For “RNA1{[moe]([m5C])[sp].[moe](G)p.[moe](T)p.[moe](A)p.d(T)[sp].d(G)[sp].d(T)[sp].d(T)[sp].d(T)[sp].d(G)[sp].d(T)[sp].d([m5C])[sp].d(T)[sp].d(G)[sp].[moe](T)p.[moe]([m5C])p.[moe](T)p.[moe](T)[sp].[moe](A)}$$$$ (last 3' nucleoside missing)”, the 3 h FOB score worked out at 4 score 0-7.

The substance “RNA1{[moe](T)[sp].[moe](T)p.[moe]([m5C])p.[moe](T)p.[moe](G)p.d([m5C])[sp].d(T)[sp].d(A)[sp].d(A)[sp].d([m5C])[sp].d(T)[sp].d(G)[sp].d(G)[sp].d(T)[sp].d(T)[sp].[moe](T)p.[moe](G)p.[moe]([m5C])[sp].[moe]([m5C])}$$$$ (last 3' nucleoside missing)” displayed a 3 h FOB score of 2 score 0-7.

Substance “RNA1{[moe](T)[sp].[moe](T)p.[moe](A)p.[moe](A)p.[moe]([m5C])p.d(A)[sp].d([m5C])[sp].d(T)[sp].d(T)[sp].d(T)[sp].d(A)[sp].d([m5C])[sp].d(T)[sp].d([m5C])[sp].d(A)[sp].[moe]([m5C])p.[moe](T)p.[moe](G)[sp].[moe]([m5C])}$$$$ (last 3' nucleoside missing)” had a 3 h FOB score of 4.5 score 0-7.

As for “RNA1{[moe](T)[sp].[moe](G)p.[moe](T)p.[moe](A)p.[moe]([m5C])p.d(T)[sp].d(T)[sp].d(T)[sp].d(T)[sp].d([m5C])[sp].d(T)[sp].d([m5C])[sp].d(A)[sp].d(T)[sp].d(G)[sp].[moe](T)p.[moe](G)p.[moe]([m5C])[sp].[moe](G)}$$$$ (last 3' nucleoside missing)”, the 3 h FOB score was 1 score 0-7.

The substance “RNA1{[moe]([m5C])[sp].[moe](T)p.[moe](G)p.[moe](G)p.d(A)[sp].d(T)[sp].d(T)[sp].d([m5C])[sp].d(T)[sp].d(G)[sp].d(T)[sp].d(A)[sp].d([m5C])[sp].d(T)[sp].[moe](T)p.[moe](T)p.[moe](T)p.[moe]([m5C])[sp].[moe](T)}$$$$ (last 3' nucleoside missing)” gave a 3 h FOB score of 2 score 0-7.

“RNA1{[moe]([m5C])[sp].[moe](A)p.[moe]([m5C])p.[moe](A)p.[moe](G)[sp].d(T)[sp].d(T)[sp].d(T)[sp].d([m5C])[sp].d(A)[sp].d([m5C])[sp].d(T)[sp].d(A)[sp].d(G)[sp].d(G)[sp].[moe](T)p.[moe](T)p.[moe]([m5C])[sp].[moe](T)}$$$$ (last 3' nucleoside missing)” had a 3 h FOB score of 4.75 score 0-7.

Consider “RNA1{[moe](A)[sp].[moe](G)p.[moe](A)p.[moe](G)p.[moe](T)p.d(T)[sp].d(T)[sp].d(T)[sp].d(T)[sp].d(G)[sp].d([m5C])[sp].d([m5C])[sp].d(T)[sp].d(T)[sp].d([m5C])[sp].[moe]([m5C])p.[moe](A)p.[moe](T)[sp].[moe](T)}$$$$ (last 3' nucleoside missing)”, for which the 3 h FOB score amounted to 3 score 0-7.

The substance “RNA1{[moe](T)[sp].[moe](G)p.[moe](T)p.[moe](A)p.[moe]([m5C])[sp].d(T)[sp].d(T)[sp].d([m5C])[sp].d(A)[sp].d([m5C])[sp].d(A)[sp].d(T)[sp].d(T)[sp].[moe](T)p.[moe](G)p.[moe](G)[sp].[moe](A)}$$$$ (last 3' nucleoside missing)” returned a 3 h FOB score of 3.5 score 0-7.

The substance “RNA1{[moe](G)[sp].[moe](T)p.[moe](A)p.[moe](A)p.[moe]([m5C])p.d(A)[sp].d(A)[sp].d(T)[sp].d(T)[sp].d(G)[sp].d(T)[sp].d(A)[sp].d(A)[sp].d(A)[sp].d(T)[sp].[moe]([m5C])p.[moe]([m5C])p.[moe](A)[sp].[moe](T)}$$$$ (last 3' nucleoside missing)” had a 3 h FOB score of 0.75 score 0-7.

“RNA1{[moe]([m5C])[sp].[moe](T)p.[moe](T)p.[moe]([m5C])p.[moe](T)[sp].d([m5C])[sp].d(T)[sp].d(A)[sp].d(T)[sp].d(T)[sp].d(T)[sp].d([m5C])[sp].d(T)[sp].[moe](T)p.[moe](T)p.[moe](G)[sp].[moe](T)}$$$$ (last 3' nucleoside missing)” yielded a 3 h FOB score of 0 score 0-7.

On to “RNA1{[moe](T)[sp].[moe](G)p.[moe](T)p.[moe]([m5C])p.[moe](A)p.d(T)[sp].d(A)[sp].d([m5C])[sp].d(T)[sp].d(G)[sp].d(T)[sp].d(A)[sp].d(T)[sp].d(T)[sp].d(G)[sp].[moe](T)p.[moe](T)p.[moe](T)[sp].[moe](T)}$$$$ (last 3' nucleoside missing)”, for which the 3 h FOB score stood at 5.25 score 0-7.

In the case of “RNA1{[moe](A)[sp].[moe]([m5C])p.[moe](A)p.[moe](G)p.[moe](T)p.d(T)[sp].d(T)[sp].d([m5C])[sp].d(A)[sp].d([m5C])[sp].d(T)[sp].d(A)[sp].d(G)[sp].d(G)[sp].d(T)[sp].[moe](T)p.[moe]([m5C])p.[moe](T)[sp].[moe]([m5C])}$$$$ (last 3' nucleoside missing)”, the 3 h FOB score was 3.25 score 0-7.

Consider “RNA1{[moe](A)[sp].[moe](G)p.[moe]([m5C])p.[moe](A)p.[moe](T)p.d([m5C])[sp].d(A)[sp].d(T)[sp].d(T)[sp].d(G)[sp].d(G)[sp].d([m5C])[sp].d(G)[sp].d([m5C])[sp].d(A)[sp].[moe](T)p.[moe](G)p.[moe](G)[sp].[moe](G)}$$$$ (last 3' nucleoside missing)”, for which the 3 h FOB score is 5 score 0-7.

Substance “RNA1{[moe]([m5C])[sp].[moe](G)p.[moe](T)p.[moe](T)p.[moe](T)p.d([m5C])[sp].d([m5C])[sp].d(T)[sp].d(T)[sp].d([m5C])[sp].d(T)[sp].d([m5C])[sp].d([m5C])[sp].d([m5C])[sp].d(T)[sp].[moe](T)p.[moe](T)p.[moe](G)[sp].[moe](A)}$$$$ (last 3' nucleoside missing)” came in with a 3 h FOB score of 0 score 0-7.

In the case of “RNA1{[moe](T)[sp].[moe](G)p.[moe](T)p.[moe](A)[sp].[moe]([m5C])[sp].d(T)[sp].d(T)[sp].d([m5C])[sp].d(A)[sp].d([m5C])[sp].d(A)[sp].d(T)[sp].d(T)[sp].d(T)[sp].d(G)[sp].[moe](G)p.[moe](A)p.[moe](G)[sp].[moe]([m5C])}$$$$ (last 3' nucleoside missing)”, the 3 h FOB score amounted to 3 score 0-7.

As for “RNA1{[moe](T)[sp].[moe](G)p.[moe](T)p.[moe](A)p.[moe]([m5C])[sp].d(T)[sp].d(T)[sp].d([m5C])[sp].d(A)[sp].d([m5C])[sp].d(A)[sp].d(T)[sp].d(T)[sp].d(T)[sp].d(G)[sp].[moe](G)p.[moe](A)p.[moe](G)[sp].[moe]([m5C])}$$$$ (last 3' nucleoside missing)”, the 3 h FOB score was found to be 3 score 0-7.

For “RNA1{[moe](G)[sp].[moe](A)p.[moe](A)p.[moe]([m5C])p.[moe](T)p.d(G)[sp].d(G)[sp].d(A)[sp].d(T)[sp].d(T)[sp].d([m5C])[sp].d(T)[sp].d(G)[sp].d(T)[sp].d(A)[sp].[moe]([m5C])p.[moe](T)p.[moe](T)[sp].[moe](T)}$$$$ (last 3' nucleoside missing)”, the 3 h FOB score was found to be 4 score 0-7.

“RNA1{[moe]([m5C])[sp].[moe](A)p.[moe](T)p.[moe](A)p.[moe]([m5C])p.d(G)[sp].d([m5C])[sp].d(G)[sp].d(G)[sp].d(T)[sp].d(G)[sp].d(A)[sp].d(A)[sp].d(T)[sp].d(T)[sp].[moe]([m5C])p.[moe](T)p.[moe](G)[sp].[moe](T)}$$$$ (last 3' nucleoside missing)” displayed a 3 h FOB score of 4 score 0-7.
